In patent US20220144812A1, “QUINOLINE DERIVATIVES AND THEIR USE FOR THE TREATMENT OF CANCER” (Epizyme, Inc., priority 2019, published 2022):

What was measured:
Format in all cases: cell-based
[1] = tested on: H3K18Ac in HB-CLS-2 cells; test: H3K18AC in-cell western (ICW) assay; conditions: H3K18Ac in-cell western; read-out: CREBBP ICW IC50
In short: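 HB-CLS-2 cells seeded 16–24 hours before 2 hr compound treatment at 37° C, 5% CO2, then methanol-fixed. H3K18Ac detected with rabbit monoclonal primary (overnight, 4° C) and 800CW anti-rabbit secondary; DRAQ5 stained DNA. Plates imaged at 700 and 800 nm for integrated intensity; IC50 in μM.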

647V cells = test: High throughput proliferation (HTP) assay; conditions: Homo sapiens, 647-V, high throughput proliferation; read-out: CREBBP HTP IC50
In short: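 Exponentially growing 647V cells in DMEM with 15% FBS were treated in triplicate with increasing compound concentrations at 37° C, 5% CO2. Viable cell number was read by CellTiter-Glo luminescence on day 7; IC50 in micromolar.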

VMCUB1 bladder cell line = test: 7-day proliferation assay, VMCUB1; conditions: Homo sapiens, VM-CUB-1, 168 h; VMCUB1, 7 days, CellTiter-Glo
Description: (§1) This example describes methods and materials for 7-day proliferation assay.
(§2) A total of 22 bladder cell lines were used (see table below). Cell lines were cultured in recommended growth media according to supplier.
(§3) Cells were in culture media at a density optimized for a 7-day culture in a final volume of 150 μL per well in white opaque 96-well plates. Cells were allowed to adhere for several hours (4-6 h) then compounds were added with HPD300 Digital Dispenser and placed into the incubator at 37° C., 5% CO2 for 7 days. After 7 days incubation, 100 μL of CellTiter-Glo® Luminescent Cell Viability Assay (Promega-G7573) reagents were added per well. After 20 minutes incubation luminescence was measured in plate reader. IC50 were calculated from a non-linear logarithmic growth curve.
(§4) IC50 values (nanomolar (nM)) are summarized in the table below, which depicts the inhibitory effect of certain compounds in bladder cell lines.

5637 bladder cell line = test: 7-day proliferation assay, 5637; conditions: 168 h; 5637, 7 days, CellTiter-Glo
Description: as §1, §2, §3, §4

[2] = tested on: HB-CLS-2 bladder cell line; test: 7-day proliferation assay, HB-CLS-2; conditions: 168 h; HB-CLS-2, 7 days, CellTiter-Glo
Description: as §1, §2, §3, §4

HT1197 bladder cell line = test: 7-day proliferation assay, HT1197; conditions: Homo sapiens, 168 h; HT1197, 7 days, CellTiter-Glo
Description: as §1, §2, §3, §4

HT1376 bladder cell line = test: 7-day proliferation assay, HT1376; conditions: Homo sapiens, HT-1376, 168 h; HT1376, 7 days, CellTiter-Glo
Description: as §1, §2, §3, §4

TCCSUP bladder cell line = test: 7-day proliferation assay, TCCSUP; conditions: Homo sapiens, TCC-SUP, 168 h, 7 days, CellTiter-Glo
Description: as §1, §2, §3, §4

UBLC1 bladder cell line = test: 7-day proliferation assay, UBLC1; conditions: 168 h; UBLC1, 7 days, CellTiter-Glo
Description: as §1, §2, §3, §4

[3] = tested on: UM-UC-3 bladder cell line; test: 7-day proliferation assay, UM-UC-3; conditions: Homo sapiens, UMUC3, 168 h; UM-UC-3, 7 days, CellTiter-Glo
Description: as §1, §2, §3, §4

CLS439 bladder cell line = test: 7-day proliferation assay, CLS439; conditions: 168 h; CLS439, 7 days, CellTiter-Glo
Description: as §1, §2, §3, §4

## CCn1ncc(CN(C)C(=O)c2cc(-c3ccc(NCCNC)c(C)n3)nc3ccc(Cl)cc23)c1C [Compound 3, 6-chloro-N-[(1-ethyl-5-methyl-1H-pyrazol-4-yl)methyl]-N-methyl-2-(6-methyl-5-{[2-(methylamino)ethyl]amino}pyridin-2-yl)quinoline-4-carboxamide]
[1]
  IC50: 40 nM
647V cells
  IC50: 27 nM
VMCUB1 bladder cell line
  IC50: 69 nM
5637 bladder cell line
  IC50: 133 nM
[2]
  IC50: 220 nM
HT1197 bladder cell line
  IC50: 154 nM
HT1376 bladder cell line
  IC50: 3890 nM
TCCSUP bladder cell line
  IC50: 7.6 µM
UBLC1 bladder cell line
  IC50: 141 nM
[3]
  IC50: 792 nM
CLS439 bladder cell line
  IC50: 619 nM

## CCn1ncc(CN(C)C(=O)c2cc(-c3ccc(NC4CN(C)C4)c(C)n3)nc3ccc(Cl)cc23)c1C [Compound 480]
[1]
  IC50: 23.1 nM
647V cells
  IC50: 19.5 nM
VMCUB1 bladder cell line
  IC50: 116 nM
5637 bladder cell line
  IC50: 147 nM
[2]
  IC50: 344 nM
HT1197 bladder cell line
  IC50: 112 nM
HT1376 bladder cell line
  IC50: 1250 nM
TCCSUP bladder cell line
  IC50: 10 µM
UBLC1 bladder cell line
  IC50: 234 nM
[3]
  IC50: 584 nM
CLS439 bladder cell line
  IC50: 480 nM

## CCc1noc(CN(C)C(=O)c2cc(-c3ccc(NCCNC)c(C)n3)nc3ccc(Cl)cc23)c1C [Compound 537]
[1]
  IC50: 48.3 nM
647V cells
  IC50: 50.4 nM
VMCUB1 bladder cell line
  IC50: 116 nM
5637 bladder cell line
  IC50: 197 nM
[2]
  IC50: 434 nM
HT1197 bladder cell line
  IC50: 346 nM
HT1376 bladder cell line
  IC50: 2760 nM
TCCSUP bladder cell line
  IC50: 10 µM
UBLC1 bladder cell line
  IC50: 494 nM
[3]
  IC50: 1380 nM
CLS439 bladder cell line
  IC50: 849 nM

## CCc1ncc(CN(C)C(=O)c2cc(-c3ccc(NCCN(C)C)c(C)n3)nc3ccc(Cl)cc23)n1C [Compound 577]
[1]
  IC50: 85.4 nM
647V cells
  IC50: 31.2 nM
VMCUB1 bladder cell line
  IC50: 51 nM
5637 bladder cell line
  IC50: 111 nM
[2]
  IC50: 240 nM
HT1197 bladder cell line
  IC50: 234 nM
HT1376 bladder cell line
  IC50: 2070 nM
TCCSUP bladder cell line
  IC50: 10 µM
UBLC1 bladder cell line
  IC50: 427 nM
[3]
  IC50: 1100 nM
CLS439 bladder cell line
  IC50: 461 nM
